Counter-ions that a name gives are not always drawn. Each block holds one compound with its values, some of them ahead of it. Calls of active or inactive are those of the source.
How the values were obtained:
[1] = molecular target: RNA-editing ligase 1, mitochondrial (Trypanosoma brucei brucei, UniProt P86926); assay: TbREL1 ligase inhibitors, dose response, biochemical, fluorescence, Trypanosoma brucei (AID 1117295); format: functional
cells [2] = format: functional, cell-based; settings: HEK-CNG
Galanin receptor type 3 = Galanin receptor type 3 (Homo sapiens, UniProt O60755); assay: Fluorescence-based cell-based primary high throughput dose response assay to identify antagonists of the Galanin Receptor 3 (GalR3).; format: functional
[3] = P. falciparum Dd2 growth inhibitors, dose response, SYBR Green, dry powder samples, set 9 (AID 1159568); format: functional, cell-based
[4] = miR-122 activators in hepatoma reporter cells, dose response, cell-based, Huh7 psiCHECK-miR122, Renilla luciferase, cherry-picked (AID 651956); format: functional;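 also: huh7 hepatoma cells stably carrying a psiCHECK-2 miR-122 sensor plasmid; renilla luciferase signal reporting endogenous miR-122 activity after 48 h compound exposure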
[5] = HEK293T cytotoxicity, dose response, cytotoxicity control for miR-122 modulator project, cell-based, activator set, cherry-pick (AID 720690); format: functional;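 also: HEK293T human cells scored for general mammalian cytotoxicity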
[6] = ADAM10 inhibitors, peptide cleavage, dose response, biochemical, QFRET (AID 743254);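 also: ADAM10 enzyme with the DM2 quenched FRET peptide as substrate; EDANS fluorescence gain as the protease cuts the substrate; inhibitor potency against ADAM10 proteolytic activity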
[7] = molecular target: Disintegrin and metalloproteinase domain-containing protein 17 (Homo sapiens, UniProt P78536); assay: ADAM17 protease inhibitors, dose response, counter-screen for ADAM10 exosite inhibitor project, biochemical, quenched FRET substrate (AID 743253)
Chain of Disintegrin and metalloproteinase domain-containing protein 17 (P78536 whole entry, the tested form may be a part): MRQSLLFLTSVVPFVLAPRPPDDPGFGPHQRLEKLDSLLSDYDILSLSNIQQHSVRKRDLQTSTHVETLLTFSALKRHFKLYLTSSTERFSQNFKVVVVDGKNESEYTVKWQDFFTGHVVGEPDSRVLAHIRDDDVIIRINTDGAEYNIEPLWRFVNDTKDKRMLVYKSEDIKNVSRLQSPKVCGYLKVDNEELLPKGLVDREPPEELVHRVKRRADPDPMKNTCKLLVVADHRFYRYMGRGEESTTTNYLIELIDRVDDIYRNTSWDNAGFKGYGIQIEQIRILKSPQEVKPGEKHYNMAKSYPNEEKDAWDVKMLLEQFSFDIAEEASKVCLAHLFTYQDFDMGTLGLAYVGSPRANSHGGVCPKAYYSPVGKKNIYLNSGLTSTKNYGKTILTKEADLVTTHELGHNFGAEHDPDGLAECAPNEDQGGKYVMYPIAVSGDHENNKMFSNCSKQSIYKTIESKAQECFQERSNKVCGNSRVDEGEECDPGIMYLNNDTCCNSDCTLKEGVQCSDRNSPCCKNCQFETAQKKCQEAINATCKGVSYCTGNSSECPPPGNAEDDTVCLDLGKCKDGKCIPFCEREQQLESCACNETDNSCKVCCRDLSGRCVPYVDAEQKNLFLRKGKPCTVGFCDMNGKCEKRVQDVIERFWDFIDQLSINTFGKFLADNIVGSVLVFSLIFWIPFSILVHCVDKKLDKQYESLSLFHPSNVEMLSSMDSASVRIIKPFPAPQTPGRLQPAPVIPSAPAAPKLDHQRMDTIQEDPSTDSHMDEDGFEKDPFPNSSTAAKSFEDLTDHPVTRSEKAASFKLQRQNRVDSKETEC

Mu-type opioid receptor = Mu-type opioid receptor (Homo sapiens, UniProt P35372); format: functional, cell-based;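 also: U2OS cells with beta-arrestin recruitment to OPRM1 by beta-gal complementation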
Chain of Mu-type opioid receptor (P35372 whole entry): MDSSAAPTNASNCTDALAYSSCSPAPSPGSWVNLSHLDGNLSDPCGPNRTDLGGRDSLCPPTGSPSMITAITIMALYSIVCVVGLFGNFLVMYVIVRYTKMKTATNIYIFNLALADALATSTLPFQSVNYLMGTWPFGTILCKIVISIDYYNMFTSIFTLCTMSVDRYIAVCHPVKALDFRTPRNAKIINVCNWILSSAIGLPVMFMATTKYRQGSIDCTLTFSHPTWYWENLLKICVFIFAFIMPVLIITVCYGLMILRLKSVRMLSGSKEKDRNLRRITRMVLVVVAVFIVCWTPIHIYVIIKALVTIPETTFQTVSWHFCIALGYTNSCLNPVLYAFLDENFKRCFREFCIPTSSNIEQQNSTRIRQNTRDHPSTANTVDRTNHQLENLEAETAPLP

[8] = molecular target: 5-hydroxytryptamine receptor 2A (Mus musculus, UniProt P35363); format: functional, cell-based;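 also: CHO-K1 cells with tagged receptor and beta-arrestin; agonist potency measured as compound-induced activation of the receptor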
Chain of 5-hydroxytryptamine receptor 2A (P35363 whole entry): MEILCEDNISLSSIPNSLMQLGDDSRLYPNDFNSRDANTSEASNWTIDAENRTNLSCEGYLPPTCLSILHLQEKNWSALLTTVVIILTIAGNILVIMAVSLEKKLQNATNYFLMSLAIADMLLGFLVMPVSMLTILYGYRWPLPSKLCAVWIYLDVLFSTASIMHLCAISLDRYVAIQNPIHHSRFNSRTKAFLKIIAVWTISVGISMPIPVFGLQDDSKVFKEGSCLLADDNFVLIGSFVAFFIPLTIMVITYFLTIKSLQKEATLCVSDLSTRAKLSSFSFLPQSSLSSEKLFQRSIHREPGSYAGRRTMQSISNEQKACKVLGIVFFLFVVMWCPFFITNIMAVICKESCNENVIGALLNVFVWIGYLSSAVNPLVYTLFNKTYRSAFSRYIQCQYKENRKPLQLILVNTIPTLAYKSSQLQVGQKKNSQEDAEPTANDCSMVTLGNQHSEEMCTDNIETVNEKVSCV

[9] = cytotoxicity toward NIH3T3 fibroblasts, dose response, counter-screen, cell-based, ATP luminescence, mouse fibroblasts (AID 2010); format: functional;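 also: cells exposed to compound for about 90 hours before reading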
INS1 = assay: beta cell apoptosis inhibitors, cytokine rescue, dose response, luminescence, retest (AID 449756); format: functional, cell-based; settings: Rattus norvegicus;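 also: cell death triggered by IL-1 beta plus TNF-alpha plus IFN-gamma mixture; protective hits raise ATP signal compared with cytokine alone wells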
[10] = inhibitors of intracellular T. cruzi replication, confirmation, NIH3T3 host cells, beta-gal luminescence (AID 2044); format: functional, cell-based;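 also: intracellular parasites grown in NIH/3T3 mouse fibroblasts as host cells; luminescent beta-galactosidase reporter signal from transgenic T. cruzi replicating inside host cells; inhibitors lower the luminescence signal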
cells [11] = format: functional, cell-based
cells [12] = format: functional, cell-based; remark: listed apart in the source
[13] = molecular target: DNA (cytosine-5)-methyltransferase 1 (Homo sapiens, UniProt P26358); assay: DNMT1 methyltransferase inhibitors, confirmation, biochemical, fluorescent molecular beacon (AID 602386); format: functional
Chain of DNA (cytosine-5)-methyltransferase 1 (P26358 whole entry): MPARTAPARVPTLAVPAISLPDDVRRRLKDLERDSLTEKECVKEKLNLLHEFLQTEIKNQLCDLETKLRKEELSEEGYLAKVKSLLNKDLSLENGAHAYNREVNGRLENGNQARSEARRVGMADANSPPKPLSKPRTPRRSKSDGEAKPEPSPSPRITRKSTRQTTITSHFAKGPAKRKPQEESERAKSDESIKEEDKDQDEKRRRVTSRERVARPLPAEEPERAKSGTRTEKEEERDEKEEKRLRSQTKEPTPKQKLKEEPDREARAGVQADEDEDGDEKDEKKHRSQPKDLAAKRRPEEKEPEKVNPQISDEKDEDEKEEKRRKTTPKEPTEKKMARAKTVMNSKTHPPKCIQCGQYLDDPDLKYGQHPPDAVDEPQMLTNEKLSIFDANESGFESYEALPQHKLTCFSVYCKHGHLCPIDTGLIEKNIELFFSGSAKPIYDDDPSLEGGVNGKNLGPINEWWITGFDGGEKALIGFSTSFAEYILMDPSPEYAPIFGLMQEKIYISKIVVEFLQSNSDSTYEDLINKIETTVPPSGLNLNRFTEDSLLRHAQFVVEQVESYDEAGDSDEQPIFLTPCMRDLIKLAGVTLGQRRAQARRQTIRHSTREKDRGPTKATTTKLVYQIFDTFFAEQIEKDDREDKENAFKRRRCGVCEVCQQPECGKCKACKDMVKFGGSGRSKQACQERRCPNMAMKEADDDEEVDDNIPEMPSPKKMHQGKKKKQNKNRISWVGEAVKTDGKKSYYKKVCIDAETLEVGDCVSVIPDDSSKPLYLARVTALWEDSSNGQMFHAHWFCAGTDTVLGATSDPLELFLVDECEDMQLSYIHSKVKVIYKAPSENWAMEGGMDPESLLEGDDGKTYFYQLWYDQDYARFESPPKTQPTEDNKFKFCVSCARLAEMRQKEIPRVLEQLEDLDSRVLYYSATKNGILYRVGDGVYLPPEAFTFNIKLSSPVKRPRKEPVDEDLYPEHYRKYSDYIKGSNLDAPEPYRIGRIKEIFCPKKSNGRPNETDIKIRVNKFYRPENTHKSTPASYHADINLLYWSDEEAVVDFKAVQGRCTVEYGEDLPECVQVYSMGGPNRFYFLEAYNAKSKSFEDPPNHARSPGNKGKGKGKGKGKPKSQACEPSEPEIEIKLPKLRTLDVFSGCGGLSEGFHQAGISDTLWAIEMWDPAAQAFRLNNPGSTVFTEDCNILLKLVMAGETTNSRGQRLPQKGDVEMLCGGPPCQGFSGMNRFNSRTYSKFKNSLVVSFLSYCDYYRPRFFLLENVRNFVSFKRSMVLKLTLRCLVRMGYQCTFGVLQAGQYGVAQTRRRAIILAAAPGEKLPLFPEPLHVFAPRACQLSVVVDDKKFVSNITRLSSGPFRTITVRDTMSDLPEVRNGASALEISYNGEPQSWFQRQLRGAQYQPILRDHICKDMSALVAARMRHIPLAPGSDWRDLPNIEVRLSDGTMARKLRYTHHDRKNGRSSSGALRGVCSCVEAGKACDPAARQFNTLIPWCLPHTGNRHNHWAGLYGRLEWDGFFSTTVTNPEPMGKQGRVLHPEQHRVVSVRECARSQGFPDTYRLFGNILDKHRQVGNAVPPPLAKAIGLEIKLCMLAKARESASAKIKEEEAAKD

[14] = Counterscreen for activators of the function of SWI/SNF related, matrix associated, actin dependent regulator of chromatin, subfamily a, member 2 (SMARCA2, BRM): Luminescence-based cell-based high throughput dose response assay to identify non-selective compounds using the VP16 reporter assay.; format: functional
[15] = molecular target: SWI/SNF-related matrix-associated actin-dependent regulator of chromatin subfamily A member 2 (Homo sapiens, UniProt P51531); assay: Luminescence-based cell-based high throughput dose response assay to identify activators of the function of SWI/SNF related, matrix associated, actin dependent regulator of chromatin, subfamily a, member 2 (SMARCA2, BRM).; format: functional
[16] = molecular target: T1, DNA repair protein RAD52 homolog (Homo sapiens, UniProt P43351); format: functional, biochemical
T1 sequence (P43351 whole entry): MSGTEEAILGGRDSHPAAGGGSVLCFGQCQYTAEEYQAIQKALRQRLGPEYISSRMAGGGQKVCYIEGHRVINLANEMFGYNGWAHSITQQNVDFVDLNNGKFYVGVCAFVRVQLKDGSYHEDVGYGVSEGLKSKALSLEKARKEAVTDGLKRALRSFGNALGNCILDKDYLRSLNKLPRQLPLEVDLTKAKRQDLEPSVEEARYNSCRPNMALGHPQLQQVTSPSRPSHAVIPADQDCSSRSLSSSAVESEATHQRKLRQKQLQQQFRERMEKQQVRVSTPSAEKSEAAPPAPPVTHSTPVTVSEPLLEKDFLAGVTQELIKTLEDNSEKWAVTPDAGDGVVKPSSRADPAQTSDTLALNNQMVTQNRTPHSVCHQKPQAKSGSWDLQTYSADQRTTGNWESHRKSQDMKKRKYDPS

[17] = molecular target: E3 ubiquitin-protein ligase UHRF1 (Homo sapiens, UniProt Q96T88); assay: Counterscreen for inhibitors of 5-meCpG-binding domain protein 2 (MBD2): TRFRET-based biochemical high throughput dose response assay to identify inhibitors of binding of ubiquitin-like with PHD and ring finger domains 1 (UHRF1) to methylated oligonucleotide.
[18] = molecular target: T2, Heat shock factor protein 1 (Mus musculus, UniProt P38532); assay: inhibition of MG132-induced HSE-luciferase signal, confirmation, cell-based, NIH3T3, luminescence, dose retest (AID 2382); format: functional;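 also: NIH3T3 fibroblasts with HSF1-driven luciferase reporter stressed by proteasome inhibitor MG132; luminescence from HSF1-driven luciferase expression after 8 hours of MG132 stress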
T2 sequence (P38532 whole entry): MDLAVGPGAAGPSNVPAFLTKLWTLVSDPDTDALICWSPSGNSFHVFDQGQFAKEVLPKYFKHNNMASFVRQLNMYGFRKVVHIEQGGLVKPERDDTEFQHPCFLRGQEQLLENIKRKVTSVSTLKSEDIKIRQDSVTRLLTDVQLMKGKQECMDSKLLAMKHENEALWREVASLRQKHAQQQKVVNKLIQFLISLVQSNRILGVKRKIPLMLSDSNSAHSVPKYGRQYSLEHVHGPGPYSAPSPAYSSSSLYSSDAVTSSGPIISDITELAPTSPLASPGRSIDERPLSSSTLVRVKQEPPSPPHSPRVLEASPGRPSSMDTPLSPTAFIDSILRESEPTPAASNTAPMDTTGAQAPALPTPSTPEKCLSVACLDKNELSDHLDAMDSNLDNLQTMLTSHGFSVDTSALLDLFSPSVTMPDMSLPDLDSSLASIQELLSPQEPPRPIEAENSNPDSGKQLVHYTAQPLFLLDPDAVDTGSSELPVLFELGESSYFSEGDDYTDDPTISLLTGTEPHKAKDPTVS

[19] = molecular target: T3, Low molecular weight phosphotyrosine protein phosphatase (Homo sapiens, UniProt P24666); assay: LMPTP phosphatase inhibitors, dose response, biochemical, OMFP substrate, fluorescence intensity, set 2 (AID 743307); format: functional
T3 sequence (P24666 whole entry): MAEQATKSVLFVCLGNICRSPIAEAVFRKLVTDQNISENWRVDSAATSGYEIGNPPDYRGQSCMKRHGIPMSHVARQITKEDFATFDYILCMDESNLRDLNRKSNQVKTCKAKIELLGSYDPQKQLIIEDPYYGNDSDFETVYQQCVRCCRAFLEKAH

[20] = molecular target: T3, Low molecular weight phosphotyrosine protein phosphatase; assay: LMPTP phosphatase inhibitors, colorimetric pNPP readout, dose response, orthogonal assay, biochemical, absorbance, pNPP substrate, LMPTP-A isoform, set 2 (AID 743308); format: functional
[21] = molecular target: Endoplasmic reticulum aminopeptidase 1 (Homo sapiens, UniProt Q9NZ08); assay: ERAP1 aminopeptidase inhibitors, dose response, biochemical, cherry-pick, set 2, plate reader (AID 743314)
Chain of Endoplasmic reticulum aminopeptidase 1 (Q9NZ08 whole entry): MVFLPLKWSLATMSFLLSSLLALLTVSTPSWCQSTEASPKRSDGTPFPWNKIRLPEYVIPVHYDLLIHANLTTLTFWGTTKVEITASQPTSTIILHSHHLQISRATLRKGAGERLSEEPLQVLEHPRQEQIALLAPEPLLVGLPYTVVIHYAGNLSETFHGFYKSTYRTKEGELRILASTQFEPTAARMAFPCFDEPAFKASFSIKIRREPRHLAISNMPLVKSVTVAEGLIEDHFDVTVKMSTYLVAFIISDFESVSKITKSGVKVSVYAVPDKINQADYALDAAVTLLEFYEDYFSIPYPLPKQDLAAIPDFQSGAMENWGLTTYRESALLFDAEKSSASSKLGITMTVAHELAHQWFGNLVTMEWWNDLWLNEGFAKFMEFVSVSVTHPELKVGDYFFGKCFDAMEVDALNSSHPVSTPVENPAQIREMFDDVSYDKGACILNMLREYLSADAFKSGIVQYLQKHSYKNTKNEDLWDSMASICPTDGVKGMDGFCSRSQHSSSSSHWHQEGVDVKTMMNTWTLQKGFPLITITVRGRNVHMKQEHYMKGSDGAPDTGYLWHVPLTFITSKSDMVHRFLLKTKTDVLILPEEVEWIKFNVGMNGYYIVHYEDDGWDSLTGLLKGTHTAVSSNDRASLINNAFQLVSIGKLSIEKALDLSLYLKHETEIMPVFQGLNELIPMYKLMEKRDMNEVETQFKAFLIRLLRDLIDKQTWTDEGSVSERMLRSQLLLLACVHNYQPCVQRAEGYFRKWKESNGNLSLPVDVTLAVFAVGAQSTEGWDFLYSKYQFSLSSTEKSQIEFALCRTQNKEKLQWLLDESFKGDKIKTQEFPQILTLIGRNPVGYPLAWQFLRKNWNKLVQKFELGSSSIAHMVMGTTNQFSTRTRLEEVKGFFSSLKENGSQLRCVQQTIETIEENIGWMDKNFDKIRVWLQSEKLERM

Chain of RNA-editing ligase 1, mitochondrial (P86926 whole entry): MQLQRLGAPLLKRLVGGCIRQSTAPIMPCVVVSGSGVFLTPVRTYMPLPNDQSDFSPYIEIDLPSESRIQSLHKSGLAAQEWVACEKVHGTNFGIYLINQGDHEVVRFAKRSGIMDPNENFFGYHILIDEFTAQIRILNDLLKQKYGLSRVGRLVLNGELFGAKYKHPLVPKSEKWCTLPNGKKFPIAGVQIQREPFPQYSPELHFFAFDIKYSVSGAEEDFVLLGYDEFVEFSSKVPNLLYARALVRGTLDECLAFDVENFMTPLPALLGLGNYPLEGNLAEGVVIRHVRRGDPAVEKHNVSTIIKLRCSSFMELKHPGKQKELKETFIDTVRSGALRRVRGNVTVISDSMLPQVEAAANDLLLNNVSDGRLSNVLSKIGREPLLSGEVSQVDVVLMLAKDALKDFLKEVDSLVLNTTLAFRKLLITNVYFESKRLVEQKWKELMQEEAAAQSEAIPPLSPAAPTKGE

IC50 [1]: > 96.6 µM (inactive)
Structure (SMILES): COC(=O)C1=C(C)N(Cc2cccc(C(F)(F)F)c2)C(NCc2ccccc2C(F)(F)F)=NC1c1ccccc1C(F)(F)F (configuration not stated)

Structure (SMILES): OCc1cc(C(O)CNCCCCCCOCCCCc2ccccc2)ccc1O (configuration not stated) [SALMETEROL XINAFOATE]
EC50 (cells [2]): > 29.9 µM (inactive) | IC50 (Galanin receptor type 3): > 29.9 µM (inactive)

Structure (SMILES): O=C(O)C[C@H]1CC[C@@H]2[C@H](COC[C@@H](O)CN2S(=O)(=O)c2ccc(Oc3ccccc3)cc2)O1
AC50 [3]: 31.1 µM (active)

Structure (SMILES): CN1C(=O)c2cc(NC(=O)c3ccc(C(F)(F)F)cc3)ccc2OC[C@H]2O[C@H](CC(=O)NCc3ccc4c(c3)OCO4)CC[C@@H]21
AC50 [4]: 8.04 µM (active) | AC50 [3]: 12.6 µM (active) | AC50 [5]: 22 µM (active)

IC50 [6]: 10.3 µM (inactive) | IC50 [7]: > 69.5 µM (inactive)
Structure (SMILES): CCCCCCNC(=O)O[C@H]1Cn2c(=O)n(CCCCCC)c(=O)n2[C@@H]2CN(S(=O)(=O)c3ccc(C)cc3)C[C@]12O

Structure (SMILES): COc1c2c(cc3c1OCO3)CCN(C)C2 [HYDROCOTARNINE HYDROBROMIDE]
EC50 (Mu-type opioid receptor): 92.4 µM (inactive) | EC50 [8]: 76 µM (inactive)

Structure (SMILES): CCN(CC)CCC(=O)Nc1cccc2c1C(=O)c1ccccc1C2=O
EC50 [9]: 13.4 µM (active) | AC50 (INS1): 4.28 µM (active) | EC50 [10]: 0.61 µM (active) | EC50 (cells [11]): 59.3 µM (active) | EC50 (cells [12]): > 350 µM (not active) | IC50 [13]: 6.86 µM (active) | EC50 [14]: > 91.3 µM (inactive) | EC50 [15]: 9.64 µM (active) | AC50 [16]: 0.801 µM (active) | IC50 [17]: > 43.8 µM (inactive)

EC50 (Mu-type opioid receptor): 92.6 µM (inactive) | EC50 [18]: > 195 µM (not active) | EC50 [8]: 12.9 µM (inactive)
Structure (SMILES): CN1CCc2c(sc(/N=C/c3cc(C(C)(C)C)ccc3O)c2C#N)C1

IC50 [19]: 1.54 µM (active) | IC50 [20]: 2.88 µM (active)
Structure (SMILES): Clc1ccc(-c2cc(NCCCN3CCCCC3)c3ccccc3n2)cc1

Structure (SMILES): COC(=O)[C@H]1[C@H](CO)[C@H]2Cn3c(ccc(/C=C/c4ccccc4)c3=O)[C@@H]1N2C(=O)C1CCC1
AC50 [21]: 4.93 µM (active)

From ChEMBL document CHEMBL1201862, “PubChem BioAssay data set” (2004)
